{"source": "patent US11872261B2", "about": "“Lipoprotein targeting protease inhibitors and uses” (The United States of America, as represented by the …, priority 2016, dated 2024)", "assay_type_in_all_cases": "in vivo, human", "key": {"[1]": {"assay": "Clinical pilot study: plasma lipids before and after rosuvastatin", "conditions": "28 days vs baseline", "experimental": "This Example describes a small clinical pilot study which assessed the impact of statins on lipoprotein-associated proteins in healthy individuals (n=10) with normal LDL-C (<130 mg/dL), who were treated with the statin rosuvastatin (available commercially as Crestor®) (20 mg/day) for 28 days. Proteomic analysis of size-exclusion chromatography isolated LDL, HDL-L (large) and HDL-S (small) fractions and spectral counting was used to compare relative protein detection before and after statin therapy. Significant protein changes were found in each lipoprotein pool and included both increases and decreases in several proteins involved in lipoprotein metabolism, complement regulation, and acute phase response. Fasting blood samples were obtained from ten healthy volunteers participating in a study of the NIH Center for Human Immunology, intended to evaluate effects of a statin on the immune system. This protocol was approved by the institutional review board of the National Heart, Lung, and Blood Institute (NHLBI) and registered at clinicaltrials.gov (NCT01200836); all participants provided written informed consent. Three males and seven females were enrolled, with an average age of 44.1±11 years. Participants were selected to have normal LDL-C (<130 mg/dL) and were not on any lipid modification therapy prior to the study. Recruited participants were given rosuvastatin (20 mg/day) for 28 days. Blood was collected by venipuncture at the following time points: baseline, 14 and 28 days after rosuvastatin treatment, and 14 days after stopping treatment (washout). Samples were stored at -20° C. Because samples were taken from each participant at baseline and on-treatment, each subject acted as their own control. Lipid and lipoprotein assays were performed on a Siemens Dimension Vista analyzer, using standard enzymatic assays. HDL-C was measured by a direct assay (Siemens) and LDL-C was determined by the Friedewald equation. Lipoprotein particle numbers and average particle sizes were determined from heparinized plasma on a […] Clinical Analyzer (LipoScience)."}, "[2]": {"assay": "Clinical pilot study: lipoprotein particle numbers by nuclear magnetic resonance", "conditions": "20 mg/day, 28 days vs baseline", "experimental": "FIG. 1A-1C. Effect of rosuvastatin on plasma lipids and lipoprotein particle numbers. (FIG. 1A) Rosuvastatin effects on total plasma lipid levels (TC=total cholesterol; HDL-C=HDL cholesterol; LDL-C=LDL cholesterol; TG=triglyceride). The effect of rosuvastatin on LDL particle number (FIG. 1B) and HDL particle number (FIG. 1C) were measured by nuclear magnetic resonance. T0 and […] are time points indicating baseline and after 28 days of rosuvastatin treatment, respectively. Data are mean±standard deviation. * indicates p<0.01. Fasting blood samples were obtained from ten healthy volunteers participating in a study of the NIH Center for Human Immunology, intended to evaluate effects of a statin on the immune system. This protocol was approved by the institutional review board of the National Heart, Lung, and Blood Institute (NHLBI) and registered at clinicaltrials.gov (NCT01200836); all participants provided written informed consent. Three males and seven females were enrolled, with an average age of 44.1±11 years. Participants were selected to have normal LDL-C (<130 mg/dL) and were not on any lipid modification therapy prior to the study. […] HDL-C was measured by a direct assay (Siemens) and LDL-C was determined by the Friedewald equation. Lipoprotein particle numbers and average particle sizes were determined from heparinized plasma on a […] […]"}, "[3]": {"tested_on": "alpha-1-antitrypsin (A1AT)", "assay": "ELISA of A1AT in large HDL fraction and in plasma", "text": "FIG. 5A-5C. Quantitative measurement of alpha-1-antitrypsin on HDL and in plasma. (FIG. 5A) Individual patient spectral counts for alpha-1-antitrypsin (A1AT) in large HDL at baseline (T0) and after 28 days (T28) of rosuvastatin treatment, n=10 for each time point. The “n=5” indicator points to data from 5 subjects with a high degree of overlap. (FIG. 5B) Quantitative measurement of A1AT in large HDL by ELISA assay. (FIG. 5C) Time course of plasma A1AT concentrations during rosuvastatin treatment and after two-week washout period (Day 42 time point). * indicates p<0.05 and ** indicates p<0.01 compared to T0.\nTo more quantitatively evaluate the change in A1AT levels observed in the MS data, we performed ELISA assays to measure A1AT in the large HDL fractions from all subjects.\nIn addition to measuring the A1AT content of large HDL, we also measured total A1AT in plasma. There was a clear trend of increasing plasma A1AT while on treatment and a return to baseline after a two week treatment washout, this effect was relatively small, approximately 10% (FIG. 5c). […] We calculated an A1AT:HDL-particle ratio (mol:mol) of about 1:100 at baseline and 1:25 after rosuvastatin treatment."}}, "data": [{"smiles": "CC(C)c1nc(N(C)S(C)(=O)=O)nc(-c2ccc(F)cc2)c1/C=C/[C@@H](O)C[C@@H](O)CC(=O)O", "note": "[rosuvastatin]", "values": [{"measurement": "increase of HDL-C", "setting": "[1]; 20 mg/day, not statistically significant", "result": 3.6, "unit": "%"}, {"measurement": "change in LDL-C", "setting": "[1]; 20 mg/day, p<0.001", "result": "−50", "unit": "%"}, {"measurement": "change in triglyceride", "setting": "[1]; 20 mg/day, p<0.01", "result": "−29", "unit": "%"}, {"measurement": "change in total cholesterol", "setting": "[1]; healthy subjects n=10, 20 mg/day, p<0.001", "result": "−28", "unit": "%"}, {"measurement": "increase of HDL-p", "setting": "[2]; not statistically significant", "result": 6.2, "unit": "%"}, {"measurement": "reduction of LDL particle number (LDL-p)", "setting": "[2]; p<0.001", "result": 51, "unit": "%"}, {"measurement": "elevation of A1AT in large HDL fraction, high responders", "setting": "[3]; ELISA, high responders, range", "result": "5-18 fold"}, {"measurement": "increase in A1AT levels in large HDL fraction, low-responders", "setting": "[3]; ELISA, low-responders, range", "result": "6-36%"}, {"measurement": "average increase in HDL-L associated A1AT by ELISA", "setting": "[3]; HDL-L, 28 days vs baseline, all subjects", "result": 5.7, "unit": "fold"}, {"measurement": "fraction of total A1AT bound to HDL after therapy", "setting": "[3]; estimated from A1AT content of HDL-L and plasma, baseline 0.84±0.037%", "result": "approximately 4.54±1.73%"}, {"measurement": "increase of total plasma A1AT while on treatment", "setting": "[3]; plasma, return to baseline after two week washout", "result": "approximately 10%"}]}]}
